PubChem BioAssay (NCI)
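96-well plates; 48 h exposure; 5 concentrations. Endpoints by linear interpolation between flanking doses. Not reached: highest tested concentration assigned. Definition used: TGI = concentration required for complete inhibition of growth.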

What was measured:
Experiment in all cases: NCI anticancer screen, dose series, 48 h
[1] = tested on: SR leukemia
[2] = tested on: M14 melanoma
[3] = tested on: RPMI-8226 leukemia
[4] = tested on: OVCAR-8 ovarian
[5] = tested on: SNB-75 CNS
[6] = tested on: SK-MEL-2 melanoma
[7] = tested on: SW-620 colon
[8] = tested on: NCI-H226 lung
[9] = tested on: M19-MEL melanoma
[10] = tested on: NCI-H460 lung
[11] = tested on: ACHN renal
[12] = tested on: KM20L2 colon
[13] = tested on: K-562 leukemia
[14] = tested on: U251 CNS
[15] = tested on: OVCAR-3 ovarian
[16] = tested on: IGROV1 ovarian
[17] = tested on: DLD-1 colon
[18] = tested on: RXF-631 renal
[19] = tested on: HOP-92 NSCLC
[20] = tested on: RXF 393 renal
[21] = tested on: SF-295 CNS
[22] = tested on: SN12C renal
[23] = tested on: UO-31 renal
[24] = tested on: A549 NSCLC
[25] = tested on: SF-539 CNS
[26] = tested on: COLO 205 colon
[27] = tested on: SK-MEL-28 melanoma
[28] = tested on: 786-0 renal
[29] = tested on: KM12 colon
[30] = tested on: HCT-116 colon
[31] = tested on: A498 renal
[32] = tested on: HOP-62 NSCLC
[33] = tested on: SF-268 CNS
[34] = tested on: HT29 colon
[35] = tested on: NCI-H522 lung
[36] = tested on: UACC-257 melanoma
[37] = tested on: NCI-H23 lung
[38] = tested on: HCT-15 colon
[39] = tested on: MOLT-4 leukemia
[40] = tested on: SK-MEL-5 melanoma
[41] = tested on: DMS 273 small cell lung
[42] = tested on: SK-OV-3 ovarian
[43] = tested on: HCC-2998 colon
[44] = tested on: HOP-18 NSCLC
[45] = tested on: SNB-19 CNS
[46] = tested on: UACC-62 melanoma
[47] = tested on: HL-60(TB) leukemia
[48] = tested on: CCRF-CEM leukemia
[49] = tested on: LOX IMVI melanoma
[50] = tested on: XF 498 CNS
[51] = tested on: TK-10 renal
[52] = tested on: OVCAR-5 ovarian
[53] = tested on: MALME-3M melanoma
[54] = tested on: LXFL 529 NSCLC
[55] = tested on: SNB-78 CNS
[56] = tested on: EKVX NSCLC
[57] = tested on: OVCAR-4 ovarian
[58] = tested on: DMS 114 small cell lung
[59] = tested on: CAKI-1 renal

Work on `O=S(=O)(NCn1ccc2ccccc21)c1ccccc1` yielded a TGI [1] of over 74.3 µM, a TGI [2] of over 100 µM and a TGI [3] of 47.2 µM. For the same compound, the TGI [4] was over 100 µM, the TGI [5] was over 100 µM and the TGI [6] was over 100 µM. It also gave a TGI [7] of over 100 µM, a TGI [8] of over 100 µM and a TGI [9] of over 100 µM. It also gave a TGI [10] of over 100 µM, a TGI [11] of over 100 µM and a TGI [12] of over 100 µM. For the same compound, the TGI [13] was over 100 µM, the TGI [14] was over 100 µM and the TGI [15] was over 100 µM. It also gave a TGI [16] of over 100 µM, a TGI [17] of over 100 µM and a TGI [18] of over 100 µM. The TGI [19] was over 100 µM, the TGI [20] was over 100 µM and the TGI [21] was over 100 µM. The TGI [22] was over 100 µM, the TGI [23] was over 100 µM and the TGI [24] was over 100 µM. The TGI [25] was over 100 µM, the TGI [26] was over 100 µM and the TGI [27] was over 100 µM. For the same compound, the TGI [28] was over 100 µM, the TGI [29] was over 100 µM and the TGI [30] was over 100 µM. It also gave a TGI [31] of over 100 µM, a TGI [32] of over 100 µM and a TGI [33] of over 100 µM. The TGI [34] was over 57.2 µM, the TGI [35] was over 100 µM and the TGI [36] was over 100 µM. The TGI [37] was over 100 µM, the TGI [38] was over 100 µM and the TGI [39] was over 100 µM. It also gave a TGI [40] of over 100 µM, a TGI [41] of over 100 µM and a TGI [42] of over 100 µM. The TGI [43] was over 100 µM, the TGI [44] was over 100 µM and the TGI [45] was over 31.6 µM. For the same compound, the TGI [46] was over 100 µM, the TGI [47] was 41 µM and the TGI [48] was over 100 µM. For the same compound, the TGI [49] was over 100 µM, the TGI [50] was over 100 µM and the TGI [51] was over 100 µM. The TGI [52] was over 100 µM, the TGI [53] was over 100 µM and the TGI [54] was over 100 µM. For the same compound, the TGI [55] was over 100 µM and the TGI [56] was over 100 µM.

Work on `Cc1cc(=O)[nH]c(NN2C(Cl)C(=O)C2c2ccc([N+](=O)[O-])cc2)n1` (configuration not stated) yielded a TGI [1] of 34.5 µM, a TGI [2] of 23 µM and a TGI [3] of 30.9 µM. It also gave a TGI [4] of 82.5 µM, a TGI [5] of 9.11 µM and a TGI [57] of 28.8 µM. It also gave a TGI [6] of 19.6 µM, a TGI [7] of 79.7 µM and a TGI [9] of 17.3 µM. It also gave a TGI [10] of 18.8 µM, a TGI [11] of 33.7 µM and a TGI [12] of 56.7 µM. For the same compound, the TGI [13] was 15 µM, the TGI [14] was 36.7 µM and the TGI [15] was 20.6 µM. The TGI [16] was 16.1 µM, the TGI [19] was 27.3 µM and the TGI [20] was 14.1 µM. For the same compound, the TGI [22] was 24.5 µM, the TGI [23] was 43.1 µM and the TGI [24] was over 100 µM. It also gave a TGI [25] of 27 µM, a TGI [26] of 35.9 µM and a TGI [27] of 27.1 µM. It also gave a TGI [30] of 22.3 µM, a TGI [32] of 23 µM and a TGI [33] of 41 µM. It also gave a TGI [34] of 43.8 µM, a TGI [36] of 37.6 µM and a TGI [58] of 28.7 µM. It also gave a TGI [37] of 26.1 µM, a TGI [38] of 22.5 µM and a TGI [39] of 43.2 µM. The TGI [40] was 27.3 µM, the TGI [41] was 22.7 µM and the TGI [43] was 31.1 µM. For the same compound, the TGI [44] was 23.9 µM, the TGI [45] was over 100 µM and the TGI [46] was 11.5 µM. It also gave a TGI [47] of 24.9 µM, a TGI [48] of 6.6 µM and a TGI [49] of 19.2 µM. The TGI [51] was 29.7 µM, the TGI [52] was 52.8 µM and the TGI [54] was 20.8 µM. It also gave a TGI [55] of 25 µM and a TGI [56] of 78.8 µM.

`CC(C)CCCC(C)[C@H]1CCC2[C@@H]3CCC4Nc5c(cnn5-c5ccccc5)C[C@]4(C)C3CC[C@@]21C` (some centres not stated) was tested, and the TGI [2] was over 100 µM, the TGI [3] was over 100 µM and the TGI [4] was over 100 µM. It also gave a TGI [59] of 78.4 µM, a TGI [5] of 25.7 µM and a TGI [57] of 80.1 µM. The TGI [6] was over 100 µM, the TGI [7] was over 100 µM and the TGI [8] was over 100 µM. The TGI [9] was over 100 µM, the TGI [10] was over 100 µM and the TGI [11] was over 100 µM. It also gave a TGI [12] of over 100 µM, a TGI [13] of over 100 µM and a TGI [14] of over 100 µM. The TGI [15] was over 100 µM, the TGI [16] was over 100 µM and the TGI [17] was over 100 µM. For the same compound, the TGI [18] was 38.4 µM, the TGI [20] was 8.8 µM and the TGI [21] was 7.46 µM. The TGI [22] was over 100 µM, the TGI [23] was 50.4 µM and the TGI [24] was over 100 µM. The TGI [25] was over 100 µM, the TGI [26] was 42 µM and the TGI [28] was over 100 µM. It also gave a TGI [29] of over 100 µM, a TGI [30] of over 100 µM and a TGI [31] of over 100 µM. For the same compound, the TGI [32] was 45.7 µM, the TGI [33] was over 100 µM and the TGI [34] was over 100 µM. It also gave a TGI [35] of over 100 µM, a TGI [36] of over 100 µM and a TGI [58] of over 100 µM. For the same compound, the TGI [37] was over 100 µM, the TGI [38] was over 100 µM and the TGI [39] was over 100 µM. The TGI [40] was over 100 µM, the TGI [41] was 8.08 µM and the TGI [42] was over 100 µM. The TGI [43] was over 100 µM, the TGI [44] was over 100 µM and the TGI [45] was 63.1 µM. It also gave a TGI [46] of 40.4 µM, a TGI [47] of over 100 µM and a TGI [48] of over 100 µM. The TGI [50] was over 100 µM, the TGI [51] was over 100 µM and the TGI [52] was over 100 µM. It also gave a TGI [53] of over 100 µM, a TGI [54] of over 100 µM and a TGI [55] of over 100 µM. For the same compound, the TGI [56] was 79.8 µM.

`C[C@]12CC[C@H](O)CC1=CC[C@@H]1C2CC[C@]2(C)Nc3c(cnn3-c3ccccc3)CC12` (some centres not stated) was tested, and the TGI [2] was 30.9 µM, the TGI [3] was 1.49 µM and the TGI [4] was over 100 µM. For the same compound, the TGI [59] was 24.8 µM, the TGI [5] was 9.12 µM and the TGI [57] was 36.6 µM. For the same compound, the TGI [6] was 48.2 µM, the TGI [7] was 8.22 µM and the TGI [8] was 56.1 µM. For the same compound, the TGI [9] was 27.5 µM, the TGI [10] was 10.8 µM and the TGI [11] was 29.7 µM. The TGI [12] was 5.8 µM, the TGI [13] was 10.2 µM and the TGI [14] was 14.9 µM. The TGI [15] was 40.2 µM, the TGI [16] was 33.3 µM and the TGI [17] was 35.7 µM. The TGI [18] was 3.82 µM, the TGI [20] was 4.01 µM and the TGI [21] was 1.87 µM. The TGI [23] was 25.3 µM, the TGI [24] was 37 µM and the TGI [25] was 2.99 µM. The TGI [27] was 18.7 µM, the TGI [28] was 7.16 µM and the TGI [29] was 5.13 µM. The TGI [30] was 12.2 µM, the TGI [31] was 29.7 µM and the TGI [32] was 8.81 µM. It also gave a TGI [34] of 4.88 µM, a TGI [36] of 15 µM and a TGI [58] of 15.1 µM. For the same compound, the TGI [37] was 63 µM, the TGI [38] was 18.6 µM and the TGI [39] was 5.15 µM. The TGI [40] was 12.4 µM, the TGI [41] was 3.66 µM and the TGI [42] was 20.7 µM. It also gave a TGI [43] of 22.3 µM, a TGI [46] of 17.4 µM and a TGI [47] of 7 µM. It also gave a TGI [48] of 10.8 µM, a TGI [51] of 83.2 µM and a TGI [52] of 17.3 µM. It also gave a TGI [53] of 36 µM, a TGI [54] of 19.7 µM and a TGI [55] of 67.7 µM. For the same compound, the TGI [56] was 57.7 µM.
